In patent US20150377888A1, “Methods for Predicting and Preventing Metastasis in Triple Negative Breast Cancers” (INSERM (INSTITUT NATIONAL DE LA SANTÉ ET DE LA RECHERCHE …, priority 2013, published 2015):
One block for each molecule: values may come before it.

Experiments:
[1] = system: TNBC breast cancer cell lines (Hs578T, MDA-MB-231 and MDA-MB-468); assay: In vitro motility assay (Boyden chambers); format: cell-based, human; conditions: cells pre-treated with the agent (inhibitors at non-cytotoxic amounts), exposed to cl-CD95L
Method: Boyden chambers (Millipore, Molsheim, France) containing 8 μm pore membranes were cultured in 24-well plates. After hydration of the membranes, 10^5 cells were added to the top chamber in low serum (1%)-containing medium. […] Cells were cultured for 24 h at 37° C. in a 5% CO2 humidified incubator. To quantify invasion, cells were fixed with methanol and stained with Giemsa. Stained cells were then removed from the top side of the membrane using a cotton-tipped swab and five representative pictures for each insert were taken of the invading cells from the reverse side. For each experiment, cells were lysed and absorbance at 560 nm was measured.

PI3K = assay: Immunoblot of Akt phosphorylation at Ser473 (hallmark of PI3K activation) in cells exposed to cl-CD95L; format: cell-based, human; conditions: for effect on CD95-mediated PI3K activation (phosphorylation of Akt at serine 473): breast cancer / TNBC cells exposed to cl-CD95L; for effect on CD95-mediated activation of Aid: pre-treatment of mammary cancer cells, non-cytotoxic amounts
Method: (§1) Cells were lysed for 30 min at 4° C. in lysis buffer [25 mM HEPES (pH 7.4), 1% v/v Triton X-100, 150 mM NaCl, and 2 mM EGTA supplemented with a mix of protease inhibitors (Sigma-Aldrich)]. Protein concentration was determined by the bicinchoninic acid method (PIERCE, Rockford, Ill., USA) according to the manufacturer's protocol. Proteins were separated by SDS-PAGE and transferred to a nitrocellulose membrane (GE Healthcare, Buckinghamshire, England). […] The proteins were visualized with the enhanced chemiluminescence substrate kit (ECL, GE Healthcare).

c-yes = c-yes activation status (auto-phosphorylation at Tyrosine 426); format: cell-based, human; conditions: pre-treatment of mammary cancer cells, non-cytotoxic amounts
Method: as §1

NADPHox = assay: Flow cytometry analysis of intracellular ROS (H2FDA); format: cell-based, human; conditions: pre-treatment with NADPHox inhibitor
Method: Cells were pre-incubated for 30 min at 37° C. with 3 μM of H2FDA resuspended in PBS. The cells were then pre-incubated for an additional 30 min with or without ROS inhibitors before stimulation with 100 ng/ml cl-CD95L for the indicated times. Cells were then washed and analyzed by FACScalibur (BD Bioscience).

EGFR = assay: Ca2+ monitoring: EGF-induced Ca2+ response; format: cell-based, human; conditions: TNBC cells (MDA-MB-231) in presence of EGF
Method: For experiments on parent cell lines, breast cancer cells were loaded with Fura2-PE3-AM (1 μM) at room temperature for 30 min in Hank's Balanced Salt Solution (HBSS). […] To minimize UV light exposure, a 4×4 binning function was used. Fura2-AM was alternately excited at 340 and 380 nm, and the ratios of the resulting images (excitations at 340 and 380 nm and emission filter at 520 nm) were produced at constant intervals (10 seconds). […] Fratio reflects the intracellular Ca^2+ concentration changes. Each experiment was repeated 3 times, and for each experimental condition, the average of more than 20 single-cell traces was used.

[2] = system: CD95-mediated Ca2+ response; assay: Ca2+ monitoring: CD95-mediated Ca2+ response; format: cell-based, human; conditions: TNBC cells exposed to cl-CD95L
Method: For experiments on parent cell lines, breast cancer cells were loaded with Fura2-PE3-AM (1 μM) at room temperature for 30 min in Hank's Balanced Salt Solution (HBSS). After washing with HBSS, the cells were incubated for 15 min in the absence of Fura2-AM to complete de-esterification of the dye. Cells were placed in the temperature controlled chamber (37° C.) of an inverted epifluorescence microscope (Olympus IX70) equipped with an ×40 UApo/340-1.15 W water-immersion objective (Olympus), and fluorescence micrograph images were captured at 510 nm and 12-bit resolution by a fast-scan camera (CoolSNAP fx Monochrome, Photometrics). To minimize UV light exposure, a 4×4 binning function was used. […]
For experiments on GFP-expressing cell lines, Fluo8-AM was used, instead of Fura2-PE3-AM for experiments with GFP-expressing cells (infected with shRNA-expressing lentivirus), because GFP fluorescence disturbs Ca^2+ measurement with Fura2-PE3. Efficiently transduced cells (GFP expressing cells) were located by their emission of fluorescence at 530±30 nm for a light excitation at 485±22 nm. Ca^2+ changes were evaluated by exciting Fluo8-AM-loaded cells at […]. The values of the emitted fluorescence (605±50 nm) for each cell (F) were normalized to the starting fluorescence (F0) and reported as F/F0 (relative Ca^2+[CYT]). […]

CD95 (human) = CD95 (human) (UniProt P25445); assay: cell-based or functional assay
Nox-1 = target: T1, Nox-1 (human, UniProt Q9Y5S8 1-564, limits assumed); assay: co-immunoprecipitation of CD95 (MISC) from MDA-MB-231 cells stimulated with cl-CD95L
T1 sequence (looked up): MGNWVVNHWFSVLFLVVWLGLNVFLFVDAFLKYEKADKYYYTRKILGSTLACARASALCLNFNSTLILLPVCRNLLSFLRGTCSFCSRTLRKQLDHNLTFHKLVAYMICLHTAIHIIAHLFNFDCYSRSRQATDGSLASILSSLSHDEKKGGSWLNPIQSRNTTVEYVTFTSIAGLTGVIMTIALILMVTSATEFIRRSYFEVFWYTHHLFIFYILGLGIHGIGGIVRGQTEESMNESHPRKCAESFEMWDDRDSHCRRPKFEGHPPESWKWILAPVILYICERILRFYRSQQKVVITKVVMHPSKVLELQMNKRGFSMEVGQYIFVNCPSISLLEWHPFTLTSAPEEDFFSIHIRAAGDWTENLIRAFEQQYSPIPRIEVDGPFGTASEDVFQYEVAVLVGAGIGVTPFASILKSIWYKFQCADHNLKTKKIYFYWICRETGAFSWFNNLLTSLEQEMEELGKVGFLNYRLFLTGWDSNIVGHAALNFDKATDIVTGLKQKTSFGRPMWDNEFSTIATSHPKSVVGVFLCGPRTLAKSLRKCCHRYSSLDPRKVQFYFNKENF
Method: (§2) The cells were then lysed, 1 μg of Apo1-3 was added to the cell lysate and CD95 was immunoprecipitated by the addition of protein A-sepharose beads (Sigma-Aldrich). […] After extensive washing, the immune complex was resolved by SDS-PAGE.

Nox-4 = target: T2, Nox-4 (human, UniProt Q9NPH5 1-578, limits assumed); assay: as above
T2 sequence (looked up): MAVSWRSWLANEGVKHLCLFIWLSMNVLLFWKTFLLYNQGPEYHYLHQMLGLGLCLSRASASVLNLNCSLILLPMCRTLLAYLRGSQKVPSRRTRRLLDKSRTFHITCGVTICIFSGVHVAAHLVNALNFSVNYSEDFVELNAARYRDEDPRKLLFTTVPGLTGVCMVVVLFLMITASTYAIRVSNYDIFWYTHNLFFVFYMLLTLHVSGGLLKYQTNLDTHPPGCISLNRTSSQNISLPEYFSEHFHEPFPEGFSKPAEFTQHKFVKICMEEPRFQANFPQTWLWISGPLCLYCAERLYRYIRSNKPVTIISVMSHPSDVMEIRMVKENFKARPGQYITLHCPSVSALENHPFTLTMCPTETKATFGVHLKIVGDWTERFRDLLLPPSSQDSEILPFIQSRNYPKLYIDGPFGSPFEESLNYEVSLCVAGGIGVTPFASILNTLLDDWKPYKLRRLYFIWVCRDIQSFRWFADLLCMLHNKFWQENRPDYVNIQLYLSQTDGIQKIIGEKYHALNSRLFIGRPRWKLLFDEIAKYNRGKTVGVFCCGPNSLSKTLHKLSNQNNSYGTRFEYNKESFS
Method: as §2

Nox-2 = target: T3, Nox-2 (human, UniProt P04839 2-570); assay: as above
T3 sequence (looked up): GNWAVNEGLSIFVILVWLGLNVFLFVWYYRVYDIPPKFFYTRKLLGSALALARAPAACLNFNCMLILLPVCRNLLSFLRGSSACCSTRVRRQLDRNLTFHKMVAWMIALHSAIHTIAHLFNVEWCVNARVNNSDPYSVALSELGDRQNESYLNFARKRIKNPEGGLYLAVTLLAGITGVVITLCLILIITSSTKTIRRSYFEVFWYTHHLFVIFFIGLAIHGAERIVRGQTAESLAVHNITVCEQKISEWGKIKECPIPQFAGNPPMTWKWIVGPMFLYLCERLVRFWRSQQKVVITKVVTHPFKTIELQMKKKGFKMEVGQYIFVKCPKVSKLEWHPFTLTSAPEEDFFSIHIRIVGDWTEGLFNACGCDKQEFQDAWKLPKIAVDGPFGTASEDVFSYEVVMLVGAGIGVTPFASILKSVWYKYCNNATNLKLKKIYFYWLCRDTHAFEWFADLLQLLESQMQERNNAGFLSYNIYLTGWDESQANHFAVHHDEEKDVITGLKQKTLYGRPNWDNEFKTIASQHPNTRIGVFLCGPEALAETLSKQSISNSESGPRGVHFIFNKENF
Method: as §2

Molecule: CC(=O)OCOC(=O)CN(CC(=O)OCOC(C)=O)c1ccccc1OCCOc1ccccc1N(CC(=O)OCOC(C)=O)CC(=O)OCOC(C)=O [BAPTA-AM, 1,2-bis-(o-Aminophenoxy)ethane-N,N,N′,N′-tetraacetic Acid Tetra-(acetoxymethyl) Ester]
effect on migration of TNBC cells exposed to cl-CD95L [1]: inhibited
effect on CD95-mediated PI3K activation (phosphorylation of Akt at serine 473) (PI3K): inhibited

Molecule: Cc1nnsc1C(=O)Nc1ccc(-n2nc(C(F)(F)F)cc2C(F)(F)F)cc1 [BTP2]
effect on migration of TNBC cells exposed to cl-CD95L [1]: inhibited
effect on CD95-mediated PI3K activation (phosphorylation of Akt at serine 473) (PI3K): inhibited

Molecule: c1ccc2c(c1)[I+]c1ccccc1-2 [DPI, diphenyleneiodonium chloride]
effect on migration of TNBC cells exposed to cl-CD95L [1]: inhibited cell migration
effect on CD95-mediated activation of c-yes (c-yes): impaired
effect on CD95-mediated activation of Aid (PI3K): impaired
effect on cl-CD95L-induced increase in intracellular ROS (NADPHox): blocked

Molecule: COc1cc(C(C)=O)ccc1O [apocynin]
effect on migration of TNBC cells exposed to cl-CD95L [1]: inhibited cell migration
effect on CD95-mediated activation of c-yes (c-yes): impaired
effect on CD95-mediated activation of Aid (PI3K): impaired
effect on cl-CD95L-induced increase in intracellular ROS (NADPHox): blocked

Molecule: C#Cc1cccc(Nc2ncnc3cc(OCCOC)c(OCCOC)cc23)c1 [erlotinib]
effect on EGF-induced Ca2+ response (EGFR): blocked
effect on EGF-induced Ca2+ response (EGFR; listed as Erlotinib): abolished
effect on migration of TNBC cells exposed to cl-CD95L [1]: abolished
effect on CD95-mediated PI3K activation (phosphorylation of Akt at serine 473) (PI3K): prevented
effect on CD95-mediated Ca2+ response [2]: neither treatment with erlotinib nor EGFR silencing altered
effect on CD95-mediated Ca2+ response ([2]; listed as Erlotinib): do not alter

cell migration (Boyden chamber) of TNBC cells (CD95 (human)): 100 pg/mL
Molecule: metalloprotease-cleaved CD95L (from UniProt P48023 130-281) (ligand)

binding result (Nox-1): no binding
binding result (Nox-4): no binding
binding result (Nox-2): no binding
B1: CD95 (receptor)
chain: QVTDINSKGLELRKTVTTVETQNLEGLHHDGQFCHKPCPPGERKARDCTVNGDEPDCVPCQEGKEYTDKAHFSSKCRRCRLCDEGHGLEVEINCTRTQNTKCRCKPNFFCNSTVCEHCDPCTKCEHGIIKECTLTSNTKCKEEGSRSNLGWLCLLLLPIPLIVWVKRKEVQKTCRKHRKENQGSHESPTLNPETVAINLSDVDLSKYITTIAGVMTLSQVKGFVRKNGVNEAKIDEIKNDNVQDTAEQKVQLLRNWHQLHGKKEAYDTLIKDLKKANLCTLAEKIQTIILKDITSDSENSNFRNEIQSLV
notes: also called Fas; FasR
